Earlier results, collected in publication PMC4955775 (Bioorganic & medicinal chemistry letters, 2016).
[ ]: non-standard residue; d: D form. Dmt = Cc1cc(O)cc(C)c1C[C@H](N)C(=O)O; Tic = O=C(O)[C@@H]1Cc2ccccc2CN1

Molecule | fold increased binding affinity at δ receptor compared to TIPP-NH2 (δ receptor) [fold] | fold increased binding affinity at μ receptor compared to TIPP-NH2 (μ receptor) [fold] | duration of the antinociceptive effect, times longer than morphine [times]
H-[Dmt][Tic]FF-NH2 [DIPP-NH2] | 25 | 65 | 
Cc1cc(O)cc(C)c1C[C@H](N)C(=O)N[C@H](CCCNC(=N)N)C(=O)N[C@@H](Cc1ccccc1)C(=O)N[C@@H](CCCCN)C(N)=O [Compound 5, H-Dmt-D-Arg-Phe-Lys-NH2] |  |  | 4
